Laboratory results reported in ChEMBL document CHEMBL1157385, “(Iso)-quinoline alkaloids from fungal fruiting bodies of Cortinarius subtortus” (J Nat Prod, 2008).

Tests used:
[1] = system: Radical scavenging activity; test: Antioxidant activity assessed as DPPH free radical scavenging activity at 1 mM; type: functional
Colletotrichum coccodes = test: Growth inhibition of Colletotrichum coccodes (Wallr.) S. Hughes at 100 uM after 6 days; type: functional, organism-based; settings: 144 h

SMILES | Activity [1] [%] | other results
O=C(O)c1cc(O)cc2c(=O)[nH]ccc12 | 21 | –
Nc1ccnc2c(C(=O)O)cc(O)cc12 | 12 | –
O=C1O[C@H]([C@@H](O)CO)C(O)=C1O [ASCORBIC ACID] | – | EC50 [1]: 45 µM
O=C(O)c1cc(O)cc2cccnc12 | 15 | inhibition at 100 µM (Colletotrichum coccodes): 71%
Oc1cccc2cccnc12 [QUINOSOL] | – | EC50 (Colletotrichum coccodes): 0.19 µM
